One may read the IC50 as the midpoint of a concentration-inhibition curve.

The first assay has as its target T1, recombinant human MMP-13 (Homo sapiens, UniProt P45452).
T1 construct: made in house; host or cells: baculovirus (pBlueBac4 / Bac-N-Blue; virus made in Sf9), expressed in High-Five insect cells; culture supernatant used
Nature of the assay: Assay of MMP-13 inhibiting activity (fluorogenic peptide substrate). Type of assay: biochemical. As to conditions: Table 3; 37° C., 2 hours. The source says: Based on the sequence described in the literature by Freije, J. M. et al (Journal of Biological Chemistry, 269: 16766-16773, 1994) and using a PCR method known per se, a human MMP-13 cDNA was obtained.
A pBlueBac4 (Invitrogen) and a Baculovirus vector Bac-N-Blue (Invitrogen) to each of which the human MMP-13 cDNA obtained above was integrated were co-transfected to an Sf9 cell to obtain a MMP-13-expressing recombinant virus.
The recombinant virus thus obtained was infected to a High-Five cell (Invitrogen), and the culture supernatant after three days was employed as an enzyme solution. Experiment 2 Assay of MMP-13 inhibiting activity
75 μl of a sample containing the recombinant human MMP-13, 200 mM sodium chloride, 20 mM calcium chloride, 0.1% Brij 35, 1 mM 2-mercaptoethanol, 200 mM tris-HCl buffer solution (pH7.5) and a test substance at various concentrations was treated with 25 μl of 40 μM MOCAc-Pro-Leu-Gly-Leu-A2pr(DNP)-Ala-Arg-NH2 (PEPTIDE KENKYUSHO) to initiate a reaction and kept at 37° C. for 2 hours, and then 100 μl of 500 mM sodium acetate-HCl buffer solution (pH3.0) was added to terminate the reaction.
The level of liberated MOCAc-Pro-Leu-Gly was determined using a fluorophotometer (MTP-32/F2: CORONA DENKI) at the excitation wavelength of 330 nm and the fluorescent wavelength of 405 nm. The fluorescent level of the reaction in the absence of a test substance was regarded as 100%, and the concentration of each test substance required for achieving 50% inhibition was indicated as IC50.
With `NC(=O)S[C@@H]1CC(=O)N(Cc2ccc(Oc3ccccc3)cc2)C1` [Example 49, S-[(3R)-5-oxo-1-(4-phenoxybenzyl)pyrrolidinyl]thiocarbamate], the IC50 turned out to be 0.65 nM.
As to `CNC(=O)S[C@@H]1CC(=O)N(Cc2ccc(Oc3ccccc3)cc2)C1` [Example 50, S-[(3R)-5-oxo-1-(4-phenoxybenzyl)pyrrolidinyl]methylthiocarbamate], the concentration for half-maximal inhibition (IC50) was found to be 3 nM.
Consider `CCNC(=O)S[C@@H]1CC(=O)N(Cc2ccc(Oc3ccccc3)cc2)C1` [Example 51, S-[(3R)-5-oxo-1-(4-phenoxybenzyl)pyrrolidinyl]ethylthiocarbamate], for which the IC50 is 1 nM.
With `CCCNC(=O)SC1CC(=O)N(Cc2ccc(Oc3ccccc3)cc2)C1` (stereo not drawn) [Example 52, S-[5-oxo-1-(4-phenoxybenzyl)-3-pyrrolidinyl]propylcarbamothioate], the IC50 was 2 nM.
As for `O=C(Nc1ccccc1)SC1CC(=O)N(Cc2ccc(Oc3ccccc3)cc2)C1` (stereo not drawn) [Example 53, S-[5-oxo-1-(4-phenoxybenzyl)-3-pyrrolidinyl]phenylcarbamothioate], the IC50 was determined as 1 nM.
For the compound `O=C(NCc1ccccc1)S[C@@H]1CC(=O)N(Cc2ccc(Oc3ccccc3)cc2)C1` [Example 54, S-[(3R)-5-oxo-1-(4-phenoxybenzyl)pyrrolidinyl]benzylthiocarbamate], the half-maximal inhibitory concentration (IC50) was 1.5 nM.
With `CC(=O)NC(=O)S[C@@H]1CC(=O)N(Cc2ccc(Oc3ccccc3)cc2)C1` [Example 55, S-[(3R)-5-oxo-1-(4-phenoxybenzyl)pyrrolidinyl]acetylthiocarbamate], the half-maximal inhibitory concentration (IC50) was determined as 1.3 nM.
As for `O=C(NC(=O)c1ccccc1)S[C@@H]1CC(=O)N(Cc2ccc(Oc3ccccc3)cc2)C1` [Example 56, S-[(3R)-5-oxo-1-(4-phenoxybenzyl)pyrrolidinyl]benzoylthiocarbamate], the IC50 turned out to be 1.4 nM.
Consider `CCOC(=O)NC(=O)S[C@@H]1CC(=O)N(Cc2ccc(Oc3ccccc3)cc2)C1` [Example 57, O-Ethyl S-[(3R)-5-oxo-1-(4-phenoxybenzyl)pyrrolidinyl]imidothiodicarbonate], for which the concentration for half-maximal inhibition (IC50) came to 0.81 nM.
Turning to `CCOC(=O)CNC(=O)S[C@@H]1CC(=O)N(Cc2ccc(Oc3ccccc3)cc2)C1` [Example 58, Ethyl [({[(3R)-5-oxo-1-(4-phenoxybenzyl)pyrrolidinyl]sulfanyl}carbonyl)amino]acetate], the IC50 was 0.7 nM.
Same read-out and setting: to `O=C(O)CNC(=O)S[C@@H]1CC(=O)N(Cc2ccc(Oc3ccccc3)cc2)C1` [Example 59, [({[(3R)-5-Oxo-1-(4-phenoxybenzyl)pyrrolidinyl]sulfanyl}carbonyl)amino]acetic acid] belongs 2 nM.
For `CCOC(=O)CCNC(=O)S[C@@H]1CC(=O)N(Cc2ccc(Oc3ccccc3)cc2)C1` [Example 60, Ethyl [({[(3R)-5-oxo-1-(4-phenoxybenzyl)pyrrolidinyl]sulfanyl}carbonyl)amino]propanoate], the IC50 was 0.9 nM.
For `O=C(O)CCNC(=O)S[C@@H]1CC(=O)N(Cc2ccc(Oc3ccccc3)cc2)C1` [Example 61, N-({[(3R)-5-oxo-1-(4-phenoxybenzyl)pyrrolidinyl]sulfanyl}carbonyl)-p-alanine], the IC50 came out at 1.8 nM.

Still in this assay, the particulars now being: Table 4; 37° C., 2 hours.
Turning to `CC(=O)SC1CC(=O)N(Cc2cccc(Oc3ccccc3)c2)C1` (stereo not drawn) [Example 40, 4-Acetylthio-1-(3-phenoxybenzyl)pyrrolidin-2-one], the IC50 was 1000 nM.
As for `O=C1CC(S)CN1Cc1cccc(Oc2ccccc2)c1` (stereo not drawn) [Example 41, 4-Mercapto-1-(3-phenoxybenzyl)pyrrolidin-2-one], the IC50 is 200 nM.

Staying with this assay, now noted: Table 7; 37° C., 2 hours.
As to `O=C1C[C@@H](SS[C@@H]2CC(=O)N(Cc3ccc(Oc4ccccc4)cc3)C2)CN1Cc1ccc(Oc2ccccc2)cc1` [Example 26, (4R,4′R)-4,4′-Dithiobis[1-(4-phenoxybenzyl)pyrrolidin-2-one]], the half-inhibitory concentration (IC50) worked out at 70 nM.

The assay is the same for the next values; noted with them: Table 8; 37° C., 2 hours.
With `CC(=O)SC1CCN(Cc2ccc(Oc3ccccc3)cc2)C1=O` (stereo not drawn) [Example 27, 3-Acetylthio-1-(4-phenoxybenzyl)pyrrolidin-2-one], the concentration for half-maximal inhibition (IC50) is above 10000 nM.
On to `O=C(SC1CCN(Cc2ccc(Oc3ccccc3)cc2)C1=O)c1ccccc1` (stereo not drawn) [Example 28, 3-Benzoylthio-1-(4-phenoxybenzyl)pyrrolidin-2-one], for which the IC50 turned out to be 1000 nM.
Regarding `O=C1C(S)CCN1Cc1ccc(Oc2ccccc2)cc1` (stereo not drawn) [Example 29, 3-Mercapto-1-(4-phenoxybenzyl)pyrrolidin-2-one], the IC50 came to 2000 nM.

Still in this assay, the particulars now being: Table 9; 37° C., 2 hours.
For `CC(=O)SC1CC(=O)N(Cc2ccc(Oc3ccc(F)cc3)cc2)C1` (stereo not drawn) [Example 30, 4-Acetylthio-1-(4-(4′-fluorophenoxy)benzyl)pyrrolidin-2-one], the IC50 turned out to be 10 nM.
Take `O=C1CC(S)CN1Cc1ccc(Oc2ccc(F)cc2)cc1` (stereo not drawn) [Example 31, 4-Mercapto-1-(4-(4′-fluorophenoxy)benzyl)pyrrolidin-2-one]: the IC50 was determined as 3 nM.
Consider `CC(=O)SC1CC(=O)N(Cc2ccc(Oc3ccc(Cl)cc3)cc2)C1` (stereo not drawn) [Example 32, 4-Acetylthio-1-(4-(4′-chlorophenoxy)benzyl)pyrrolidin-2-one], for which the IC50 was 8 nM.
Consider `O=C1CC(S)CN1Cc1ccc(Oc2ccc(Cl)cc2)cc1` (stereo not drawn) [Example 33, 4-Mercaoto-1-(4-(4′-chlorophenoxy)benzyl)pyrrolidin-2-one], for which the IC50 came out at 5 nM.
On the same count and under the same terms, to `CC(=O)SC1CC(=O)N(Cc2ccc(Oc3ccc(Br)cc3)cc2)C1` (stereo not drawn) [Example 34, 4-Acetylthio-1-(4-(4′-bromophenoxy)benzyl)pyrrolidin-2-one] belongs 10 nM.
Consider `O=C1CC(S)CN1Cc1ccc(Oc2ccc(Br)cc2)cc1` (stereo not drawn) [Example 35, 4-Mercapto-1-(4-(4′-bromophenoxy)benzyl)pyrrolidin-2-one], for which the 50% inhibitory concentration (IC50) was 6 nM.
`COc1ccc(Oc2ccc(CN3CC(SC(C)=O)CC3=O)cc2)cc1` (stereo not drawn) [Example 36, 4-Acetylthio-1-(4-(4′-methoxyphenoxy)benzyl)pyrrolidin-2-one]: the IC50 is 50 nM.
For `COc1ccc(Oc2ccc(CN3CC(S)CC3=O)cc2)cc1` (stereo not drawn) [Example 37, 4-Mercapto-1-(4-(4′-methoxyphenoxy)benzyl)pyrrolidin-2-one], the concentration for half-maximal inhibition (IC50) worked out at 5 nM.

Staying with this assay, now noted: Table 13; 37° C., 2 hours.
Take `CC(=O)SC1CCC(=O)N(Cc2ccc(Oc3ccccc3)cc2)C1=O` (stereo not drawn) [Example 42, 3-Acetylthio-1-(4-phenoxybenzyl)piperidine-2,6-dione]: the IC50 was determined as 70 nM.
As to `CC(=O)SC1CCC(=O)N(Cc2ccc(Oc3ccc(Br)cc3)cc2)C1=O` (stereo not drawn) [Example 43, 3-Acetylthio-1-[4-(4-bromophenoxy)benzyl]piperidine-2,6-dione], the IC50 turned out to be 20 nM.
In the case of `O=C(SC1CCC(=O)N(Cc2ccc(Oc3ccccc3)cc2)C1=O)c1ccccc1` (stereo not drawn) [Example 44, 3-Benzoylthio-1-(4-phenoxybenzyl)piperidine-2,6-dione], the IC50 came to 10 nM.
In the case of `CC(=O)SC1CCCN(Cc2ccc(Oc3ccccc3)cc2)C1=O` (stereo not drawn) [Example 46, 3-Acetylthio-1-(4-phenoxybenzyl)piperidin-2-one], the IC50 is above 10000 nM.
`O=C(SC1CCCN(Cc2ccc(Oc3ccccc3)cc2)C1=O)c1ccccc1` (stereo not drawn) [Example 47, 3-Benzoylthio-1-(4-phenoxybenzyl)piperidin-2-one]: the IC50 was 4000 nM.
Consider `O=C1C(S)CCCN1Cc1ccc(Oc2ccccc2)cc1` (stereo not drawn) [Example 48, 3-Mercapto-1-(4-phenoxybenzyl)piperidin-2-one], for which the IC50 is 5000 nM.

Values taken from US6953789B2, “Thiol compounds, their production and use” (Takeda Chemical Industries, Ltd., priority 1998, dated 2005).
